The results in this text go back to publication PMC12040169 (PLOS Biology, 2025).

The series can be described thus: in vitro. The settings on record: human, hela cells, % viability.

The term viability denotes a read-out of living cells in per cent, often relative to untreated cells. As to `Cc1ccc(Cl)cc1NC(=O)CC(C(=O)O)N(C)C` (stereo not shown) [CBK267105], the viability at 28.5 h, 10 µM was found to be 112%. Take `COC(=O)c1ccc(NC(=O)COn2nnc3ccc([N+](=O)[O-])cc32)cc1` [CBK267106]: the viability at 28.5 h, 10 µM was 94.3%.

As for `S=C(Nc1cccc(Cl)c1Cl)Nc1nn(Cc2ccc(Cl)c(Cl)c2)cc1Cl` [CBK267109], the viability at 28.5 h, 10 µM is 109%. As for `COC(=O)c1c(N=C(S)Nc2ccc(CC(=O)O)cc2)sc(C)c1C` [CBK267111], the viability at 28.5 h, 10 µM came out at 96.4%.

Take `Cc1c(Cl)c(C(F)(F)F)nn1CCCNC(=S)Nc1ccc(S(N)(=O)=O)cc1` [CBK267113]: the viability at 28.5 h, 10 µM came to 100%. Under `CCc1cc(C(=O)OC)c(NC(=S)Nc2nc3cc(C)c(C)cc3s2)s1` [CBK267116] stands 81%; under `CN(CC(=O)N1CCN(Cc2ccccc2)CC1)S(=O)(=O)c1ccc2ccccc2c1` [CBK267117], 90.1%. Under `O=C(O)COc1ccc(-c2nnn(CC(=O)O)n2)cc1` [CBK267124] stands 87.6%; under `COC(=O)c1c(N=C(S)NN2CCN(C)CC2)sc2c1CCC(C)C2` (stereo not shown) [CBK267125], 83.9%; under `Fc1ccc(-c2n[nH]c(=S)n2CCCN2CCOCC2)cc1` [CBK267127], 100%. Under `CCCC(=O)Nc1ccc2c(c1)nc1n2CCN(Cc2ccccc2)C1` [CBK267129] stands 105%; under `S=c1[nH]nc(CSc2nc3ccccc3[nH]2)n1-c1ccccc1` [CBK267133], 87.3%.

For `CC1=NN(C(=O)CSCc2ccccc2)C(O)(c2ccc(Cl)cc2)C1` (stereo not shown) [CBK267136], the viability at 28.5 h, 10 µM was found to be 92.7%. Under `O=C(O)c1ccc(-c2ccc(/C=C/c3[nH]c(=O)[nH]c(=O)c3[N+](=O)[O-])o2)cc1Cl` [CBK267139] stands 94.9%; under `O=C(CCCN1C(=O)c2ccccc2C1=O)Oc1ccc(-c2ccccc2)cc1` [CBK267144], 98.1%.

Consider `O=C(CSc1nc[nH]n1)Nc1ccc(-c2nc3ccccc3s2)cc1` [CBK267146], for which the viability at 28.5 h, 10 µM is 81.9%.

In the case of `O=C(Cn1c(C(F)(F)F)nc2ccccc21)NCCN1CCCC1` [CBK267150], the viability at 28.5 h, 10 µM came out at 97.8%. Under `Cn1c(SCC(=O)N2CCN(Cc3ccccc3)CC2)nnc1-c1cccc([N+](=O)[O-])c1` [CBK267154] stands 90.6%.

Regarding `CN(C)S(=O)(=O)c1ccc(NC(=O)CCC(=O)O)cc1` [CBK267156], the viability at 28.5 h, 10 µM is 91.6%.

As for `S=C(NCCc1c[nH]c2ccccc12)NCc1ccco1` [CBK267157], the viability at 28.5 h, 10 µM came out at 92.7%. Under `Cc1cccc(C)c1NC(=O)CC1Sc2ccccc2NC1=O` (stereo not shown) [CBK267160] stands 97%. Under `COc1ccc(Cl)cc1NC(=S)NNC(=O)c1cccnc1` [CBK267161] stands 92.7%; under `c1ccc(Cc2nn3c(COc4ccccc4)nnc3s2)cc1` [CBK267163], 88%; under `c1csc(-c2csc3ncnc(NCCCN4CCOCC4)c23)c1` [CBK267166], 98.1%.

`Cc1ccc(C(=O)O)cc1S(=O)(=O)N(C)CCO` [CBK267167]: the viability at 28.5 h, 10 µM turned out to be 94.1%. As to `CCN1C(=O)c2cccc3c(S(=O)(=O)N4CCCC4C(=O)O)ccc1c23` (stereo not shown) [CBK267169], the viability at 28.5 h, 10 µM amounted to 109%. Under `Cc1ccc(C(=O)O)cc1S(=O)(=O)NCCCO` [CBK267171] stands 96.9%; under `COC(=O)COc1ccc(S(=O)(=O)NCc2ccc3c(c2)OCO3)cc1C` [CBK267172], 90.3%; under `CCc1ccc(OCC(=O)NC(=S)Nc2cccc3nsnc23)cc1` [CBK267173], 100%. In the case of `Nc1ncnc2[nH]c(SCc3nc4ccc(I)cc4c(=O)n3-c3ccccc3)nc12` [CBK267174], the viability at 28.5 h, 10 µM came to 96.2%. Under `COc1ccc(S(=O)(=O)Nc2ccncc2)cc1N(C)S(=O)(=O)c1ccccc1` [CBK267179] stands 103%.
